{
  "source": "patent US8394969B2",
  "about": "“Cyclic benzimidazole derivatives useful as anti-diabetic agents” (Merck Sharp & Dohme Corp., priority 2008, dated 2013)",
  "note": "pEC50: −log10 of the molar value. Counter-ions that a name gives are not always drawn.",
  "data": [
    {"target": "recombinant human AMPK complex 1 (containing α1β1γ1) (Homo sapiens, UniProt Q13131+Q9Y478)", "sequence (Q13131 whole entry)": "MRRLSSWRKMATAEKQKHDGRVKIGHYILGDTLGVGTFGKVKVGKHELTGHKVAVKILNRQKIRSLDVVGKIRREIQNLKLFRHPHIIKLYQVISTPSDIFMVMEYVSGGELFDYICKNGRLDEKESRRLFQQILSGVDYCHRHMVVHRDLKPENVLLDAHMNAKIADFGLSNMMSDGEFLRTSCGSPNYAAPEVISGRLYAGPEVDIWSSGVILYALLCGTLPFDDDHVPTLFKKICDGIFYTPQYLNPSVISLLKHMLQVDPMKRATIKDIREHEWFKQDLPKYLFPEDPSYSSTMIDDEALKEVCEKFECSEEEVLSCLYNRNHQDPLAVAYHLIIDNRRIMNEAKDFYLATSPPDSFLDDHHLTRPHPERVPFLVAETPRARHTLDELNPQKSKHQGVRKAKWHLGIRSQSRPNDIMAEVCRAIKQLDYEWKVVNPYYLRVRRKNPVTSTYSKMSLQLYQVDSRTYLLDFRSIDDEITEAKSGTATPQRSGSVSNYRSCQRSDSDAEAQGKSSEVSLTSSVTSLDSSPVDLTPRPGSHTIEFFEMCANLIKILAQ", "sequence (Q9Y478 whole entry)": "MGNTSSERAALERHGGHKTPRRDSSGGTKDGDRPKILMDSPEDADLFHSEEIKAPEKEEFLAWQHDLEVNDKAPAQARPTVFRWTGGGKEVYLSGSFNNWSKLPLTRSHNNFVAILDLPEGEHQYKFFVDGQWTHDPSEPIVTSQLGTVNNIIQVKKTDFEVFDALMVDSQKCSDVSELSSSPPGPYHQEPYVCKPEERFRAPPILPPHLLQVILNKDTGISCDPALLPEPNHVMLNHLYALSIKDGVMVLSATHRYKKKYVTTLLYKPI", "sequence (P54619 whole entry partner)": "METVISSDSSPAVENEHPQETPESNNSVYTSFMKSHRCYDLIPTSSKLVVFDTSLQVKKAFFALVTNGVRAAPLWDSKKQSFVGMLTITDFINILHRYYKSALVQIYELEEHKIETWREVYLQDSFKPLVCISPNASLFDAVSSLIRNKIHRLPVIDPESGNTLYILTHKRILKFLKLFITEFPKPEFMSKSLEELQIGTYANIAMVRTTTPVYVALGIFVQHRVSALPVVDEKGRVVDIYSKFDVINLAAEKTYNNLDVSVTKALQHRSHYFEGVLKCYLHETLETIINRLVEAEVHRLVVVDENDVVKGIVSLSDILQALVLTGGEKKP", "assay": "[…] (in vitro AMPK activation assay)", "type": "biochemical", "details": "not given", "values": [
      {"smiles": "Cc1ccc(Oc2nc3cc(-c4ccc(-c5ccccc5)cc4)c(Cl)cc3[nH]2)cc1C(=O)O", "note": "[Example 1, 5-[(5-biphenyl-4-yl-6-chloro-1H-benzimidazol-2-yl)oxy]-2-methylbenzoic acid]", "pEC50": 8.10}
    ]},
    {"target": "recombinant human AMPK complex 1 (containing α1β1γ1) (Homo sapiens, UniProt Q13131+Q9Y478)", "assay": "[…] (in vitro AMPK activation assay)", "type": "biochemical", "details": "recombinant human AMPK complex 1 (α1β1γ1); basal activity subtracted; read-out: % Maximum AMP Activation of human AMPK Complex 1", "units": {"Emax": "%"}, "values": [
      {"smiles": "Cc1ccc(Oc2nc3cc(-c4ccc(C5(O)CC5)cc4)c(Cl)cc3[nH]2)cc1C(=O)O", "note": "[Example 264, 5-{6-Chloro-5-[4-(1-hydroxy-cyclopropyl)-phenyl]-1H-benzoimidazol-2-yloxy}-2-methyl-benzoic acid]", "Emax": "> 80"},
      {"smiles": "Cc1ccc(Oc2nc3cc(-c4ccc(N5CCNCC5)cc4)c(Cl)cc3[nH]2)cc1C(=O)O", "note": "[Example 178, 5-[6-Chloro-5-(4-piperazin-1-yl-phenyl)-1H-benzoimidazol-2-yloxy]-2-methyl-benzoic acid]", "Emax": "> 80"},
      {"smiles": "Cc1ccc(Oc2nc3cc(-c4ccc5c(c4)cc(C(=O)O)n5C)c(Cl)cc3[nH]2)cc1C(=O)O", "note": "[Example 275, 5-[2-(3-Carboxy-4-methyl-phenoxy)-6-chloro-1H-benzoimidazol-5-yl]-1-methyl-1H-indole-2-carboxylic acid]", "Emax": "> 80"},
      {"smiles": "Cc1ccc(Oc2nc3cc(-c4ccc(-c5ccc(F)cc5)cc4)c(Cl)cc3[nH]2)cc1C(=O)O", "note": "[Example 105, 5-[6-Chloro-5-(4′-fluoro-biphenyl-4-yl)-1H-benzoimidazol-2-yloxy]-2-methyl-benzoic acid]", "Emax": "> 80"},
      {"smiles": "Cc1ccc(Oc2nc3cc(C#Cc4ccc(CN)cc4)c(Cl)cc3[nH]2)cc1C(=O)O", "note": "[Example 72, 5-[5-(4-Aminomethyl-phenylethynyl)-6-chloro-1H-benzimidazol-2-yloxy]-2-methyl-benzoic acid]", "Emax": "> 80"},
      {"smiles": "Cc1ccc(Oc2nc3cc(C#Cc4ccc(-c5cnc[nH]5)cc4)c(Cl)cc3[nH]2)cc1C(=O)O", "note": "[Example 75, 5-{6-Chloro-5-[4-(3H-imidazol-4-yl)-phenylethynyl]-1H-benzoimidazol-2-yloxy}-2-methyl-benzoic acid]", "Emax": "> 80"},
      {"smiles": "O=C(O)c1ccc(Cl)c(Oc2nc3cc(-c4ccc(-c5ccccc5)cc4)c(Cl)cc3[nH]2)c1", "note": "[Example 210, 3-(5-Biphenyl-4-yl-6-chloro-1H-benzoimidazol-2-yloxy)-4-chloro-benzoic acid]", "Emax": "> 80"},
      {"smiles": "COC(=O)c1cc(Oc2nc3cc(-c4ccc(-c5ccccc5)cc4)c(Cl)cc3[nH]2)cc(C)c1C(=O)OC", "note": "[Example 15, 5-(5-Biphenyl-4-yl-6-chloro-1H-benzoimidazol-2-yloxy)-3-methyl-phtalic acid dimethyl ester]", "Emax": "> 80"},
      {"smiles": "Cc1cc(Oc2nc3cc(-c4ccc5c(c4)OCCN5C)c(Cl)cc3[nH]2)cc(C(=O)O)c1C", "note": "[Example 312, 5-[6-Chloro-5-(4-methyl-3,4-dihydro-2H-benzo[1,4]oxazin-7-yl)-1H-benzoimidazol-2-yloxy]-2,3-dimethyl-benzoic acid]", "Emax": "> 80"},
      {"smiles": "COc1ccc2cc(-c3cc4nc(Oc5ccc(Cl)c(C(=O)O)c5)[nH]c4cc3Cl)ccc2c1", "note": "[Example 309, 2-Chloro-5-[6-chloro-5-(6-methoxy-naphthalen-2-yl)-1H-benzoimidazol-2-yloxy]-benzoic acid]", "Emax": "> 80"},
      {"smiles": "Cc1ccc(Oc2nc3cc(-c4ccc5c(c4)c4c(n5C)CCC4)c(Cl)cc3[nH]2)cc1C(=O)O", "note": "[Example 281, 5-[6-Chloro-5-(4-methyl-1,2,3,4-tetrahydro-cyclopenta[b]indol-7-yl)-1H-benzoimidazol-2-yloxy]-2-methyl-benzoic acid]", "Emax": "> 80"},
      {"smiles": "COC(=O)c1cc(Oc2nc3cc(-c4ccc(-c5ccccn5)cc4)c(Cl)cc3[nH]2)ccc1C", "note": "[Example 165, 5-[6-Chloro-5-(4-pyridin-2-yl-phenyl)-1H-benzoimidazol-2-yloxy]-2-methyl-benzoic acid methyl ester]", "Emax": "> 80"},
      {"smiles": "Cc1ccc(Oc2nc3cc(C#Cc4ccc(C(F)(F)F)cc4)c(Cl)cc3[nH]2)cc1C(=O)O", "note": "[Example 93, 5-[6-Chloro-5-(4-trifluoromethyl-phenylethynyl)-1H-benzoimidazol-2-yloxy]-2-methyl benzoic acid]", "Emax": "> 80"},
      {"smiles": "COc1ccc(-c2ccc(-c3cc4nc(Oc5ccc(C)c(C(=O)O)c5)[nH]c4cc3Cl)cc2)cn1", "note": "[Example 201, 5-({6-chloro-5-[4-(6-methoxypyridin-3-yl)phenyl]-1H-benzimidazol-2-yl}oxy)-2-methylbenzoic acid]", "Emax": "> 80"},
      {"smiles": "Cc1ccc(Oc2nc3cc(-c4ccc(C(C)C)c5c4CCN5C)c(Cl)cc3[nH]2)cc1C(=O)O", "note": "[Example 268, 5-[6-Chloro-5-(7-isopropyl-1-methyl-2,3-dihydro-1H-indol-4-yl)-1H-benzoimidazol-2-yloxy]-2-methyl-benzoic acid]", "Emax": "> 80"},
      {"smiles": "Cc1ccc(Oc2nc3cc(C#Cc4cccnc4)c(Cl)cc3[nH]2)cc1C(=O)O", "note": "[Example 131, 5-(6-Chloro-5-pyridin-3-ylethynyl-1H-benzoimidazol-2-yloxy)-2-methyl-benzoic acid]", "Emax": "> 80"},
      {"smiles": "Cc1ccc(Oc2nc3cc(-c4ccc(-c5ccc[n+]([O-])c5)cc4)c(Cl)cc3[nH]2)cc1C(=O)O", "note": "[Example 161, 5-{6-Chloro-5-[4-(1-oxy-pyridin-3-yl)-phenyl]-1H-benzoimidazol-2-yloxy}-2-methyl-benzoic acid]", "Emax": "> 80"},
      {"smiles": "Cc1nc(-c2ccc(C#Cc3cc4nc(Oc5ccc(C)c(C(=O)O)c5)[nH]c4cc3Cl)cc2)no1", "note": "[Example 80, 5-{6-Chloro-5-[4-(5-methyl-[1,2,4]oxadiazol-3-yl)-phenylethynyl]-1H-benzoicmidazol-2-yloxy}-2-methyl-benzoic acid]", "Emax": "> 80"},
      {"smiles": "NC(C(=O)O)c1ccc(Oc2nc3cc(-c4ccc(-c5ccccc5)cc4)c(Cl)cc3[nH]2)cc1", "note": "(stereo not shown) [Example 18, Amino-[4-(5-biphenyl-4-yl-6-chloro-1H-benzoimidazol-2-yloxy)-phenyl]-acetic acid]", "Emax": "> 80"},
      {"smiles": "NC(=O)Nc1cccc(Oc2nc3cc(-c4ccc(-c5ccccc5)cc4)c(Cl)cc3[nH]2)c1", "note": "[Example 2, [3-(5-Biphenyl-4-yl-6-chloro-1H-benzoimidazol-2-yloxy)-phenyl]-urea]", "Emax": "> 80"},
      {"smiles": "Cc1cc(Oc2nc3cc(-c4ccc(-c5ccccc5)cc4)c(Cl)cc3[nH]2)c(C)c(C(=O)O)c1", "note": "[Example 213, 3-(5-Biphenyl-4-yl-6-chloro-1H-benzoimidazol-2-yloxy)-2,5-dimethyl-benzoic acid]", "Emax": "> 80"},
      {"smiles": "COc1ccc2cc(-c3cc4nc(Oc5ccc(CC(=O)O)cc5)[nH]c4cc3Cl)ccc2c1", "note": "[Example 245, {4-[6-Chloro-5-(6-methoxy-naphthalen-2-yl)-1H-benzoimidazol-2-yloxy]-phenyl}-acetic acid]", "Emax": "> 80"},
      {"smiles": "Cc1ccc(Oc2nc3cc(-c4ccc(-c5ccccc5Cl)cc4)c(Cl)cc3[nH]2)cc1C(=O)O", "note": "[Example 191, 5-{[6-chloro-5-(2′-chlorobiphenyl-4-yl)-1H-benzimidazol-2-yl]oxy}-2-methylbenzoic acid]", "Emax": "> 80"},
      {"smiles": "O=C(O)c1ccc(F)c(Oc2nc3cc(-c4ccc(-c5ccccc5)cc4)c(Cl)cc3[nH]2)c1", "note": "[Example 209, 3-(5-Biphenyl-4-yl-6-chloro-1H-benzoimidazol-2-yloxy)-4-fluoro-benzoic acid]", "Emax": "> 80"},
      {"smiles": "COC(=O)c1ccc(Oc2nc3cc(-c4ccc(-c5ccccc5)cc4)c(Cl)cc3[nH]2)cc1C(=O)OC", "note": "[Example 10, 4-(5-Biphenyl-4-yl-6-chloro-1H-benzoimidazol-2-yloxy)-phthalic acid dimethyl ester]", "Emax": "> 80"},
      {"smiles": "Cc1ccc(Oc2nc3cc(-c4ccc([S+](C)[O-])cc4)c(Cl)cc3[nH]2)cc1C(=O)O", "note": "(stereo not shown) [Example 331, 2-(3-carboxy-4-methylphenoxy)-6-chloro-5-[4-(methylsulfinyl)phenyl]-1H-3,1-benzimidazol-3-ium formate]", "Emax": "> 80"},
      {"smiles": "O=C(O)c1cccc(Nc2nc3cc(C#Cc4ccccc4)c(Cl)cc3[nH]2)c1", "note": "[Example 139, 3-(6-Chloro-5-phenylethynyl-1H-benzoimidazol-2-ylamino)-benzoic acid]", "Emax": "> 80"},
      {"smiles": "COc1ncccc1-c1ccc(-c2cc3nc(Oc4ccc(C)c(C(=O)O)c4)[nH]c3cc2Cl)cc1", "note": "[Example 199, 5-({6-chloro-5-[4-(2-methoxypyridin-3-yl)phenyl]-1-benzimidazol-2-yl}oxy)-2-methylbenzoic acid]", "Emax": "> 80"},
      {"smiles": "Cc1ccc(C(=O)O)cc1Oc1nc2cc(-c3ccc4c(ccn4C)c3)c(Cl)cc2[nH]1", "note": "[Example 216, 3-[6-Chloro-5-(1-methyl-1H-indol-5-yl)-1H-benzoimidazol-2-yloxy]-4-methyl-benzoic acid]", "Emax": "> 80"},
      {"smiles": "Cc1ccc(Oc2nc3cc(-c4cnc(N5CCCC5)cn4)c(F)cc3[nH]2)cc1C(=O)O", "note": "[Example 250, 5-[6-Fluoro-5-(5-pyrrolidin-1-yl-pyrazin-2-yl)-1H-benzoimidazol-2-yloxy]-2-methyl-benzoic acid]", "Emax": "> 80"},
      {"smiles": "COC(=O)c1cc(Oc2nc3cc(-c4ccc(-c5ccccc5F)cc4)c(Cl)cc3[nH]2)ccc1C", "note": "[Example 195, Methyl 5-{[6-chloro-5-(2′-fluorobiphenyl-4-yl)-1H-benzimidazol-2-yl]oxy}-2-methylbenzoate]", "Emax": "> 80"},
      {"smiles": "O=C(O)c1cncc(Oc2nc3cc(-c4ccc(-c5ccccc5)cc4)c(Cl)cc3[nH]2)c1", "note": "[Example 34, 5-(5-Biphenyl-4-yl-6-chloro-1H-benzoimidazol-2-yloxy)-nicotinic acid]", "Emax": "> 80"},
      {"smiles": "Cc1ccc(Oc2nc3cc(C#Cc4ccc(C(=O)O)cc4)c(Cl)cc3[nH]2)cc1C(=O)O", "note": "[Example 181, 5-[5-(4-Carboxy-phenylethynyl)-6-chloro-1H-benzoimidazol-2-yloxy]-2-methyl-benzoic acid]", "Emax": "> 80"},
      {"smiles": "Cc1ccccc1C#Cc1cc2nc(Oc3ccc(C)c(C(=O)O)c3)[nH]c2cc1Cl", "note": "[Example 96, 5-(6-Chloro-5-o-tolylethynyl-1H-benzoimidazol-2-yloxy)-2-methyl-benzoic acid]", "Emax": "> 80"},
      {"smiles": "Cc1ccc(Oc2nc3cc(-c4ccc(C(=O)N(C)C)cc4)c(Cl)cc3[nH]2)cc1C(=O)O", "note": "[Example 241, 5-[6-Chloro-5-(4-dimethylcarbamoyl-phenyl)-1H-benzoimidazol-2-yloxy]-2-methyl-benzoic acid]", "Emax": "> 80"}
    ]},
    {"target": "recombinant human AMPK complex 1 (containing α1β1γ1) (Homo sapiens, UniProt Q13131+Q9Y478)", "assay": "[…] (in vitro AMPK activation assay)", "type": "biochemical", "details": "recombinant human AMPK complex 1 (α1β1γ1); read-out: EC50", "values": [
      {"smiles": "COc1ccc(-c2cc3nc(Oc4ccc(C)c(C(=O)O)c4)[nH]c3cc2Cl)c(F)c1", "note": "[Example 326, 5-{[6-chloro-5-(2-fluoro-4-methoxyphenyl)-1H-benzimidazol-2-yl]oxy}-2-methylbenzoic acid]", "pEC50": 8.00}
    ]}
  ]
}
